The values that follow come from ChEMBL document CHEMBL6109147, “Discovery of Potent STING Inhibitors Bearing a Difluorobenzodioxol Structural Motif as Potent Anti-Inflammatory Agents” (J Med Chem, 2025).

Active and inactive are the calls of the source. The calls are words filed in the database; no cut-off is given here.

The nature of data set [1]: AUC (0 to infinity) in Sprague-Dawley rat at 1 mg/kg, iv. Type of data set: ADME, organism-based. Particulars: in vivo.
The nature of data set [2]: Volume of distribution at steady state in Sprague-Dawley rat at 1 mg/kg, iv. It counts as ADME, organism-based. The note with it: in vivo.
Data set [3] is described as follows: MRT (0 to infinity) in Sprague-Dawley rat at 1 mg/kg, iv. Type of data set: ADME, organism-based. The note with it: in vivo.
Data set [4] deals with T1, Stimulator of interferon genes protein (Mus musculus, UniProt Q3TBT3).
T1 sequence (Q3TBT3 whole entry): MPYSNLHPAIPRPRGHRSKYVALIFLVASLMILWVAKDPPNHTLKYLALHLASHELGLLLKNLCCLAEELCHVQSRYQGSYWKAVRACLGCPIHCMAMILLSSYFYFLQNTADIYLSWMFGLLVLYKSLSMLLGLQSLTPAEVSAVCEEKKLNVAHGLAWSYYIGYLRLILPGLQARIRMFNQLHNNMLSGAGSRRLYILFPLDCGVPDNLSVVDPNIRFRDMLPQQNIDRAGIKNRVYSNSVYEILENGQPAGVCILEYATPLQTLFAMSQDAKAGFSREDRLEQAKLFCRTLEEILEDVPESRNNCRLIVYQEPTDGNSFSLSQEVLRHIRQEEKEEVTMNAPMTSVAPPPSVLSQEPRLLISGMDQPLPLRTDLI
Description: Inhibition of mouse STING in mouse RAW cells assessed as secreted luciferase reporter of interferon stimulated gene (ISG) measured after 24 hrs incubation by QUANTI-Luc detection assay. It counts as cell-based.

Data set [5] in a line: Half life in Sprague-Dawley rat at 1 mg/kg, iv. Type of data set: ADME, organism-based. The note with it: in vivo.
A short description of data set [6]: Inhibition of intracellular DNA induced Ifnb mRNA expression in human IMR-90 cells measured after 6 hrs by PCR assay. Particulars: IMR-90, 6 h.
The target of data set [7] is Stimulator of interferon genes protein (Homo sapiens) (UniProt Q86WV6). In words: Binding affinity to Flag-tagged human STING expressed in HEK293T cells assessed as labelling measured after 1 hr by TAMRA-N3 fluorescent assay. It counts as cell-based.
Data set [8] shares this target. In words: Binding affinity to Flag-tagged human STING expressed in HEK293T cells assessed as labelling pretreated for 15 mins with (E)-1-(5-(3-Cyanoprop-1-en-1-yl)-1H-indol-3-yl)-3-(2,2-difluorobenzo[d][1,3]dioxol-5-yl)urea followed by treated at 1 uM for 1 hr by TAMRA-N3 fluorescent assay. Type of data set: cell-based. The note with it: time 75.0 min.
Data set [9] in a line: Metabolic stability in rat liver microsomes assessed as liver intrinsic clearance. Type of data set: ADME, Microsome.
The test system of data set [10] is Mus musculus. In words: Anti-inflammatory activity against MSA-2 induced C57BL/6 mouse inflammation model assessed as inhibition of MSA-2 induced IL-6 level in plasma at 10 mg/kg, ip pre-treated for 1 hr followed by stimulated with MSA-2 for 4 hrs by ELISA. Type of data set: functional, organism-based. The note with it: time 5.0 hrs.
For data set [11], the system named is Mus musculus. In words: Anti-inflammatory activity against MSA-2 induced C57BL/6 mouse inflammation model assessed as inhibition of MSA-2 induced IL-6 mRNA expression in kidney at 10 mg/kg, ip pre-treated for 1 hr followed by stimulated with MSA-2 for 4 hrs by real-time PCR analysis. Type of data set: functional, organism-based. Particulars: time 5.0 hrs.
In data set [12] the test system is Mus musculus. In words: Anti-inflammatory activity against MSA-2 induced C57BL/6 mouse inflammation model assessed as inhibition of MSA-2 induced IP-10 level in plasma at 10 mg/kg, ip pre-treated for 1 hr followed by stimulated with MSA-2 for 4 hrs by ELISA. It counts as functional, organism-based. Particulars: time 5.0 hrs.
A short description of data set [13]: Metabolic stability in human liver microsomes assessed as microsomal intrinsic clearance. It counts as ADME, Microsome. The note with it: read-out: CLH.
Data set [14] can be described thus: Metabolic stability in human liver microsomes assessed as half life. It counts as ADME, Microsome.
In data set [15] the test system is Mus musculus. Description: Anti-inflammatory activity against MSA-2 induced C57BL/6 mouse inflammation model assessed as inhibition of MSA-2 induced IL-6 level in kidney at 10 mg/kg, ip pre-treated for 1 hr followed by stimulated with MSA-2 for 4 hrs by ELISA. Type of data set: functional, organism-based. Particulars: time 5.0 hrs.
Data set [16] relates to HEK293. Description: Protection of Cisplatin induced apoptosis in human HEK293 cells assessed as apoptotic cells at 10 uM measured after 72 hrs by flow cytometry. Type of data set: functional, cell-based.
A short description of data set [17]: Metabolic stability in mouse liver microsomes assessed as microsomal intrinsic clearance. It counts as ADME, Microsome. The note with it: read-out: CLH.
The nature of data set [18]: Clearance in Sprague-Dawley rat at 1 mg/kg, iv. Type of data set: ADME, organism-based. The note with it: in vivo.
Data set [19] deals with Mus musculus. Description: Anti-inflammatory activity against MSA-2 induced C57BL/6 mouse inflammation model assessed as inhibition of MSA-2 induced Cxcl-10 mRNA expression in kidney at 10 mg/kg, ip pre-treated for 1 hr followed by stimulated with MSA-2 for 4 hrs by real-time PCR analysis. It counts as functional, organism-based. Particulars: time 5.0 hrs.
In data set [20] the test system is Mus musculus. Description: Anti-inflammatory activity against MSA-2 induced C57BL/6 mouse inflammation model assessed as inhibition of MSA-2 induced IP-10 level in kidney at 10 mg/kg, ip pre-treated for 1 hr followed by stimulated with MSA-2 for 4 hrs by ELISA. Particulars: time 5.0 hrs. It counts as functional, organism-based.
The nature of data set [21]: Metabolic stability in human liver microsomes assessed as liver intrinsic clearance. It counts as ADME, Microsome.
The nature of data set [22]: Metabolic stability in rat liver microsomes assessed as half life. Type of data set: ADME, Microsome.
In data set [23] the test system is Mus musculus. In words: Anti-inflammatory activity against MSA-2 induced C57BL/6 mouse inflammation model assessed as inhibition of MSA-2 induced Isg15 mRNA expression in kidney at 10 mg/kg, ip pre-treated for 1 hr followed by stimulated with MSA-2 for 4 hrs by real-time PCR analysis. It counts as functional, organism-based. Particulars: time 5.0 hrs.
A short description of data set [24]: Metabolic stability in mouse liver microsomes assessed as half life. It counts as ADME, Microsome.
Data set [25] has as its system Mus musculus. Description: Anti-inflammatory activity against MSA-2 induced C57BL/6 mouse inflammation model assessed as inhibition of MSA-2 induced Isg56 RNA expression in kidney at 10 mg/kg, ip pre-treated for 1 hr followed by stimulated with MSA-2 for 4 hrs by real-time PCR analysis. Particulars: time 5.0 hrs. Type of data set: functional, organism-based.
Data set [26] is described as follows: Metabolic stability in rat liver microsomes assessed as microsomal intrinsic clearance. The note with it: read-out: CLH. It counts as ADME, Microsome.
Data set [27] concerns Mus musculus. Description: Anti-inflammatory activity against MSA-2 induced C57BL/6 mouse inflammation model assessed as inhibition of MSA-2 induced TNF-alpha mRNA expression in kidney at 10 mg/kg, ip pre-treated for 1 hr followed by stimulated with MSA-2 for 4 hrs by real-time PCR analysis. The note with it: time 5.0 hrs. Type of data set: functional, organism-based.
Data set [28] can be described thus: Metabolic stability in mouse liver microsomes assessed as liver intrinsic clearance. Type of data set: ADME, Microsome.

Sequence of Stimulator of interferon genes protein (Homo sapiens) (Q86WV6 whole entry): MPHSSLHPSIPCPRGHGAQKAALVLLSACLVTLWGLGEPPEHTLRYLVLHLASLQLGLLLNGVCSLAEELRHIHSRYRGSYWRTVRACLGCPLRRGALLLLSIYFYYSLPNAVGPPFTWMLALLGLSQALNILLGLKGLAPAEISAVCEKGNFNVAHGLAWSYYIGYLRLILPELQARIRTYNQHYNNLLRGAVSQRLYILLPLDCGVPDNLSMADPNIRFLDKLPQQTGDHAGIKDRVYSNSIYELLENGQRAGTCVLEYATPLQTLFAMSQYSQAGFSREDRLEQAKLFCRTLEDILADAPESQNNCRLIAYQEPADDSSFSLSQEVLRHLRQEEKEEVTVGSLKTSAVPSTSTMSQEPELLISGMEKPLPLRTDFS

On to `Fc1cnc2[nH]cc(Nc3nc4cc(C5CCCC5)ccc4[nH]3)c2c1`, for which the AUC(0-inf) in data set [1] worked out at 43.8 ng·h/mL. In data set [2] (iv, 1 mg/kg), this molecule registered a Vdss of 14.04 L/kg. The molecule further registered an MRT in data set [3] (iv, 1 mg/kg) of 16.2 min. Further, in data set [4], the IC50 came out at 52.3 nM. This molecule also gave a half-life in data set [5] of 25.8 min.

Turning to `O=C(Nc1ccc2c(c1)OC(F)(F)O2)Nc1c[nH]c2ccc(Br)cc12`, the IC50 in data set [4] stood at 776 nM.

As for `O=C(Nc1cccc2c1OC(F)(F)O2)Nc1c[nH]c2ccccc12`, in data set [4], the IC50 is 457 nM.

As to `O=C(Nc1ccc2c(c1)OC(F)(F)O2)Nc1c[nH]c2ccc(Cl)cc12`, the IC50 in [4] was found to be 815 nM.

For the molecule `CC[C@@H]1NC(=O)[C@@H]2[C@H](Cl)[C@H](Cl)CN2C(=O)[C@H](CC)NC(=O)C[C@H](c2ccccc2)NC(=O)[C@H](CO)NC1=O`, half-maximal inhibition in data set [6] (IC50) was put at 10800 nM.

As for `Fc1cc2[nH]cc(Nc3nc4cc(C5CCCC5)ccc4[nH]3)c2cc1F`, the IC50 in data set [4] was 305 nM.

As for `Fc1ccc2[nH]cc(Nc3nc4cc(C5CCCC5)ccc4[nH]3)c2c1`, in [4], the IC50 came to 210 nM.

Regarding `Fc1ccc2[nH]cc(Nc3nc4cc5c(cc4[nH]3)OC(F)(F)O5)c2c1`, the IC50 in [4] is 229 nM.

Regarding `C#Cc1ccc2[nH]cc(NC(=O)Nc3ccc4c(c3)OC(F)(F)O4)c2c1`, in data set [7], the Activity entry is “Dose-dependent-effect”. In addition, the result in data set [8] was inactive. For the same molecule, the IC50 in [4] came out at 5450 nM.

In the case of `CCc1ccc(NC(=O)Nc2c[nH]c3ccccc23)cc1`, the values for the CLH in data set [9], in data set [21] and in [28] were 2448 µL/min/mg, 103 µL/min/mg and 873 µL/min/mg, respectively. The inhibition result in [10], in [11], in data set [12], in data set [15], in data set [19] and in data set [20] was “Active” throughout. The inhibition entry in data set [23], in [25] and in [27] was “Active” throughout. The microsomal CLint in [13] was found to be 115 µL/min/mg; in data set [17], 220 µL/min/mg; in data set [26] it was 1360 µL/min/mg. In addition, the half-life in data set [14] is 12.1 min; in data set [22], 1.02 min; in data set [24] it was 6.29 min; in data set [5], 9.6 min. For the same molecule, the outcome in data set [16] was Active. The same molecule displayed a clearance in data set [18] of 144 mL/min/kg. The AUC(0-inf) in data set [1] was 116 ng·h/mL. In data set [2] (Sprague-Dawley, read-out: Vdss), the Vd was determined as 1.94 L/kg. In data set [3] (Sprague-Dawley), this molecule returned an MRT inf of 12 min.

`O=C(Nc1ccc2c(c1)OC(F)(F)O2)Nc1c[nH]c2ccccc12`: the half-maximal inhibitory concentration (IC50) in data set [4] amounted to 407 nM.
